{
  "source": "patent US20230009323A1",
  "about": "“COMPOUNDS AND METHODS FOR THE TREATMENT OF CRYPTOSPORIDIOSIS” (The Broad Institute, Inc., priority 2019, published 2023)",
  "key": {"[1]": {"test_system": "C. parvum Iowa isolate (Bunch Grass Farm)", "experiment": "C. parvum Iowa isolate (Bunch Grass Farm) growth in HCT-8 cells, high-content microscopy", "format": "cell-based", "details": "Cryptosporidium parvum", "protocol": "A high-content microscopy assay was used to measure activity of compounds against C. parvum grown in the human adenocarcinoma cell line HCT-8 (ATCC) as disclosed in Bessoff, K., et al., Antimicrobial agents and chemotherapy 57, 1804-1814, doi:10.1128/AAC.02460-12 (2013), hereby incorporated by reference in its entirety. HCT-8 cells were cultured in 384-well clear-bottomed plates in 50 μL per well of RPMI 1640 medium ([…]), 120 U·mL^−1 penicillin, and 120 μg·mL^−1 streptomycin (ATCC) at 37° C. under 5% CO2. For compound screening and follow-up SAR studies, confluent cell monolayers were infected with C. parvum Iowa isolate oocysts [Bunch Grass Farm (Deary, Id.); ˜5,500 oocysts per well] after inducing excystation by treatment for 10 min at 37° C. with 10 mM HCl and then 10 min at 16° C. in 2 mM sodium taurocholate. Compounds were added at the indicated concentrations 3 h after monolayer infection. After incubation (37° C., 5% CO2) for 48 h, the cells were washed three times with PBS containing 111 mM D-Galactose and fixed by adding an equal volume of 8% formaldehyde in PBS. Cell monolayers were then prepared for microscopy by permeabilizing with 0.1% Triton X-100, washing three times with PBS with 0.1% Tween 20, blocking with 4% bovine serum albumin (BSA) in PBS for 2 h at 37° C. or 4° C. overnight, and staining parasitophorous vacuoles with 1.33 μg·mL^−1 of fluorescein-labeled Vicia villosa lectin (Vector Laboratories) diluted in 1% BSA in PBS with 0.1% Tween 20 for 1 h at 37° C. DNA was then stained by adding Hoechst 33258 (AnaSpec) at a final concentration of 0.09 mM diluted in water, followed by washing five times with PBS containing 0.1% Tween 20. Images were acquired using a Nikon Eclipse TE2000 epifluorescence microscope with an automated stage that was programmed using NIS-Elements Advanced Research software (Nikon) to focus on the center of each well and take a 3×3 composite image using an EXi Blue fluorescence microscopy camera (QImaging) with a 20× objective (numerical aperture 0.45). Nucleus and parasite images were exported separately as tif files and analyzed using NIH ImageJ and previously reported macros, and data analysis and graphing were done using GraphPad Prism software, version 6.01. […]"}, "[2]": {"test_system": "C. hominis (TU 502)", "experiment": "C. hominis TU502 growth in HCT-8 cells", "format": "cell-based", "details": "Cryptosporidium hominis", "protocol": "Studies using farm C. parvum isolates and the C. hominis TU502 isolate were performed by Calibr at Scripps Research (La Jolla, Calif.) in 1,536-well plates using a slightly modified immunofluorescence assay as described in Love, M. S. et al. PLoS neglected tropical diseases 11, e0005373, doi:10.1371/journal.pntd.0005373 (2017), hereby incorporated by reference in its entirety. HCT-8 cell culture medium was replaced with RPMI 1640 medium supplemented with 2% heat-inactivated horse serum, 100 U·mL^−1 penicillin, and […] 24 h prior to infection with the indicated isolate. The C. parvum Iowa isolate was included as a reference in all experiments. Imaging was performed using a Cellnsight CX5 High Content screening platform (Thermo Scientific) with a 10× objective and acquisition of one microscopic field per well. Images were processed using HCS Studio Scan software, and the selected-object count (HCT-8 cells) and spot count (parasitophorous vacuoles) were analyzed in Genedata Screener (version 13.0; Standard). Dose-response curves and EC50 values were calculated using the Smart Fit function of Genedata Analyzer."}, "[3]": {"test_system": "C. parvum parental WT (Bunchgrass)", "experiment": "In vitro drug susceptibility in HCT-8 cells, luminescence, parent strain", "format": "cell-based", "details": "Cryptosporidium parvum; 48 h, HCT-8, luciferase activity", "protocol": "The in vitro drug susceptibility assay using transgenic parasites expressing Nluc was performed as described in Vinyak et al. Briefly, host intestinal epithelial adenocarcinoma (HCT-8) cells grown in 96-well plates were infected with purified transgenic Nluc-expressing oocysts (1,000 oocysts per well) and incubated with different concentrations of Compound 11 for 48 hours. Culture supernatant was discarded from the wells after 48 hours, and 200 μl of NanoGlo lysis buffer containing 1:50 of NanoGlo substrate (Promega) was added to the wells. Lysates were transferred to white 96-well plates and luminescence was measured on a Glomax luminescence reader (Promega). EC50 values were calculated in GraphPad Prism software v7.\nOocysts from the mutant (mut482V) and wild type (wtL482) transgenic lines were purified as well as the parent strain (Bunchgrass) used to generate the transgenics. Sporozoites were excised from these oocysts and used to infect 96 well format HCT-8 cultures to perform in vitro drug susceptibility assays. Cultures were incubated for 48 hours in the presence of varying concentrations of Compound 11 and parasite growth was measured by establishing whole well luciferase activity to calculate EC50 values for each strain."}, "[4]": {"test_system": "C. parvum Iowa isolate (Bunch Grass Farms)", "experiment": "C. parvum time-kill curve assay in HCT-8 cells", "format": "cell-based, Cryptosporidium parvum", "protocol": "Time-kill curve assays were performed in 384-well plates using C. parvum Iowa isolate oocysts (Bunch Grass Farms, Deary, Id.) following infection of HCT-8 cell monolayers as described in Jumani, R. S. et al. Antimicrobial agents and chemotherapy 62, e01505-01517 (2018), hereby incorporated by reference in its entirety. […] Single-phase exponential decay curves were fit using GraphPad Prism software version 6.01 after normalizing the percentage of host cells infected to the vehicle control value at each time point, which isolates the effect of compound treatment from the spontaneous reduction in parasite numbers that occurs in this culture system."}},
  "note": "Like-named read-outs stand apart in the source and are kept apart here.",
  "data": [
    {"smiles": "COc1ccc(NC(=O)N2CCCCN3[C@H](CN(C)C)[C@H](c4ccc(C#Cc5ccccc5)cc4)[C@@H]3C2)cc1", "note": "[Compound 11, (8R,9S,10S)-10-((dimethylamino)methyl)-N-(4-methoxyphenyl)-9-(4-(phenylethynyl)phenyl)-1,6-diazabicyclo[6.2.0]decane-6-carboxamide]", "values": [
      {"measurement": "EC50", "setting": "[1]; read-out: C. parvum (Iowa) (1% FBS) BGF EC50", "value": 9, "unit": "nM"},
      {"measurement": "EC50", "setting": "[1]; read-out: C. parvum (Iowa) (10% FBS) BGF EC50", "value": 73, "unit": "nM"},
      {"measurement": "EC50", "setting": "[1]; serum not given, read-out: C. parvum EC50", "value": "< 73", "unit": "nM"},
      {"measurement": "EC50", "setting": "[2]", "value": 10, "unit": "nM"},
      {"measurement": "EC50", "setting": "[3]", "value": 29, "unit": "nM"},
      {"measurement": "parasites per nucleus at 80 h", "setting": "[4]; compound at EC50", "value": "~60", "unit": "%"},
      {"measurement": "parasites per nucleus at 80 h", "setting": "[4]; compound at EC90", "value": "~30", "unit": "%"},
      {"measurement": "time required to eliminate 99.9% of parasites", "setting": "[4]; normalized to vehicle control", "value": "~95", "unit": "h"}
    ]}
  ]
}
